{"source": "patent US20230031406A1", "about": "“COMPOUNDS AND COMPOSITIONS FOR TREATING CONDITIONS ASSOCIATED WITH NLRP ACTIVITY” (Novartis AG, priority 2018, published 2023)", "data": [{"test_system": "PMA-differentiated THP-1 cells", "experiment": "IL-1β production in PMA-differentiated THP-1 cells stimulated with gramicidin (hTHP-1 assay containing 2% fetal bovine serum; Procedures 1 and 2)", "assay_type": "cell-based, human", "details": "Homo sapiens, THP-1, Table B1; 2% fetal bovine serum; class symbols; read-out: Average IC50 of compounds in hTHP-1 assay: hTHP-1 IC50", "outline": "(§1)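 THP-1 cells were differentiated with PMA (20 ng/ml, 16-18 h), detached, and plated at 50,000 cells/well in RPMI 1640 with 2% FBS. They were pre-treated with compound (0.0017–100 μM, 0.37% DMSO) for 1 h, then stimulated with gramicidin (5 μM) for 2 h. Supernatant IL-1β was measured by HTRF.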", "units": {"IC50": "µM"}, "values": [{"smiles": "CC(C)c1cncc(C(C)C)c1NC(=O)N=S(N)(=O)c1cnc(C(C)(C)O)s1", "note": "(single isomer, unassigned) [Compound 160b, (S) or (R)-N′-((3,5-diisopropylpyridin-4-yl)carbamoyl)-2-(2-hydroxypropan-2-yl)thiazole-5-sulfonimidamide]", "IC50": "5 to 30"}, {"smiles": "CC(C)c1ncc(F)c(C(C)C)c1NC(=O)N=S(N)(=O)c1ncc(C(C)(C)O)s1", "note": "(single isomer, unassigned) [Compound 165b]", "IC50": "5 to 30"}]}, {"test_system": "PMA-differentiated THP-1 cells", "experiment": "IL-1β production in PMA-differentiated THP-1 cells stimulated with gramicidin (hTHP-1 assay containing 2% fetal bovine serum; Procedures 1 and 2)", "assay_type": "cell-based, human", "details": "Homo sapiens, THP-1, Table B1; 2% fetal bovine serum; numeric bounds; read-out: Average IC50 of compounds in hTHP-1 assay: hTHP-1 IC50", "outline": "as §1", "units": {"IC50": "µM"}, "values": [{"smiles": "CC1CCc2c1nc1c(c2NC(=O)N=S(N)(=O)c2sc(C(C)(C)O)nc2CO)CCC1", "note": "(single isomer, unassigned) [Compound 168ab, (S,R) or (S,S)-4-(hydroxymethyl)-2-(2-hydroxypropan-2-yl)-N′-((3-methyl-1,2,3,5,6,7-hexahydrodicyclo-penta[b,e]pyridin-8-yl)carbamoyl)thiazole-5-sulfonimidamide]", "IC50": "> 30"}]}, {"test_system": "PMA-differentiated THP-1 cells", "experiment": "IL-1β production in PMA-differentiated THP-1 cells stimulated with gramicidin (hTHP-1 assay containing 2% fetal bovine serum; Procedures 1 and 2)", "assay_type": "cell-based, human", "details": "Table B1; 2% fetal bovine serum; class symbols; read-out: Average IC50 of compounds in hTHP-1 assay: hTHP-1 IC50", "outline": "as §1", "units": {"IC50": "µM"}, "values": [{"smiles": "CC(C)(O)c1cc(S(N)(=O)=NC(=O)Nc2c3c(nc4c2CCC4)CCC3)nn1-c1ccccc1", "note": "(single isomer, unassigned) [Compound 159a, (R) or (S)-N′-((1,2,3,5,6,7-hexahydrodicyclo-penta[b,e]pyridin-8-yl)carbamoyl)-5-(2-hydroxypropan-2-yl)-1-phenyl-1H-pyrazole-3-sulfonimidamide]", "IC50": "1 to 5"}, {"smiles": "CC(C)(O)c1cc(S(N)(=O)=NC(=O)Nc2c3c(nc4c2CCC4)CCC3)nn1-c1ccccc1", "note": "(single isomer, unassigned) [Compound 159b, (S) or (R)-N′-((1,2,3,5,6,7-hexahydrodicyclo-penta[b,e]pyridin-8-yl)carbamoyl)-5-(2-hydroxypropan-2-yl)-1-phenyl-1H-pyrazole-3-sulfonimidamide]", "IC50": "5 to 30"}, {"smiles": "CC(C)(O)c1ncc(S(N)(=O)=NC(=O)Nc2c3c(nc4c2CCC4)CCCC3)s1", "note": "(single isomer, unassigned) [Compound 161a, (S) or (R)-N′-((2,3,5,6,7,8-hexahydro-1H-cyclopenta[b]quinolin-9-yl)carbamoyl)-2-(2-hydroxypropan-2-yl)thiazole-5-sulfonimidamide]", "IC50": "5 to 30"}, {"smiles": "CC(C)(O)c1ncc(S(N)(=O)=NC(=O)Nc2c3c(nc4c2CCC4)CCCC3)s1", "note": "(single isomer, unassigned) [Compound 161b, (R) or (S)-N′-((2,3,5,6,7,8-hexahydro-1H-cyclopenta[b]quinolin-9-yl)carbamoyl)-2-(2-hydroxypropan-2-yl)thiazole-5-sulfonimidamide]", "IC50": "1 to 5"}, {"smiles": "CC1CCc2c1nc1c(c2NC(=O)N=S(N)(=O)c2cnc(C(C)(C)O)s2)CCC1", "note": "(single isomer, unassigned) [Compound 162aa, (S,S) or (S,R)-2-(2-hydroxypropan-2-yl)-N′-((3-methyl-1,2,3,5,6,7-hexahydrodicyclo-penta[b,e]pyridin-8-yl)carbamoyl)thiazole-5-sulfonimidamide]", "IC50": "5 to 30"}, {"smiles": "CC1CCc2c1nc1c(c2NC(=O)N=S(N)(=O)c2cnc(C(C)(C)O)s2)CCC1", "note": "(single isomer, unassigned) [Compound 162ab, (S,R) or (S,S)-2-(2-hydroxypropan-2-yl)-N′-((3-methyl-1,2,3,5,6,7-hexahydrodicyclo-penta[b,e]pyridin-8-yl)carbamoyl)thiazole-5-sulfonimidamide]", "IC50": "1 to 5"}, {"smiles": "CC(C)c1ncc(F)c(C(C)C)c1NC(=O)N=S(N)(=O)c1nc(C(C)(C)O)cs1", "note": "(single isomer, unassigned) [Compound 163a, (R) or (S)-N′-((5-fluoro-2,4-diisopropylpyridin-3-yl)carbamoyl)-4-(2-hydroxypropan-2-yl)thiazole-2-sulfonimidamide]", "IC50": "0.04 to 0.2"}, {"smiles": "CC(C)c1ncc(F)c(C(C)C)c1NC(=O)N=S(N)(=O)c1nc(C(C)(C)O)cs1", "note": "(single isomer, unassigned) [Compound 163b, (S) or (R)-N′-((5-fluoro-2,4-diisopropylpyridin-3-yl)carbamoyl)-4-(2-hydroxypropan-2-yl)thiazole-2-sulfonimidamide]", "IC50": "5 to 30"}, {"smiles": "CC(C)c1ncc(F)c(C(C)C)c1NC(=O)N=S(N)(=O)c1cnc(C(C)(C)O)s1", "note": "(single isomer, unassigned) [Compound 164a, (R) or (S)-N′-((5-fluoro-2,4-diisopropylpyridin-3-yl)carbamoyl)-2-(2-hydroxypropan-2-yl)thiazole-5-sulfonimidamide]", "IC50": "1 to 5"}, {"smiles": "CC(C)c1ncc(F)c(C(C)C)c1NC(=O)N=S(N)(=O)c1cnc(C(C)(C)O)s1", "note": "(single isomer, unassigned) [Compound 164b, (S) or (R)-N′-((5-fluoro-2,4-diisopropylpyridin-3-yl)carbamoyl)-2-(2-hydroxypropan-2-yl)thiazole-5-sulfonimidamide]", "IC50": "5 to 30"}, {"smiles": "CC(C)(O)c1cnc(S(N)(=O)=NC(=O)Nc2c3c(nc4c2CCC4)CCC3)s1", "note": "(single isomer, unassigned) [Compound 167a, (S) or (R)-N′-((1,2,3,5,6,7-hexahydrodicyclo-penta[b,e]pyridin-8-yl)carbamoyl)-5-(2-hydroxypropan-2-yl)thiazole-2-sulfonimidamide]", "IC50": "5 to 30"}, {"smiles": "CC(C)(O)c1cnc(S(N)(=O)=NC(=O)Nc2c3c(nc4c2CCC4)CCC3)s1", "note": "(single isomer, unassigned) [Compound 167b, (R) or (S)-N′-((1,2,3,5,6,7-hexahydrodicyclo-penta[b,e]pyridin-8-yl)carbamoyl)-5-(2-hydroxypropan-2-yl)thiazole-2-sulfonimidamide]", "IC50": "0.2 to 1"}, {"smiles": "CC1CCc2c1nc1c(c2NC(=O)N=S(N)(=O)c2sc(C(C)(C)O)nc2CO)CCC1", "note": "(single isomer, unassigned) [Compound 168a, (S,R/S) or (R,R/S)-4-(hydroxymethyl)-2-(2-hydroxypropan-2-yl)-N′-((3-methyl-1,2,3,5,6,7-hexahydro-dicyclopenta[b,e]pyridin-8-yl)carbamoyl)thiazole-5-sulfonimidamide]", "IC50": "5 to 30"}, {"smiles": "CC1CCc2c1nc1c(c2NC(=O)N=S(N)(=O)c2sc(C(C)(C)O)nc2CO)CCC1", "note": "(single isomer, unassigned) [Compound 168aa, (S,S) or (S,R)-4-(hydroxymethyl)-2-(2-hydroxypropan-2-yl)-N′-((3-methyl-1,2,3,5,6,7-hexahydrodicyclo-penta[b,e]pyridin-8-yl)carbamoyl)thiazole-5-sulfonimidamide]", "IC50": "5 to 30"}, {"smiles": "CC1CCc2c1nc1c(c2NC(=O)N=S(N)(=O)c2sc(C(C)(C)O)nc2CO)CCC1", "note": "(single isomer, unassigned) [Compound 168b, (R,R/S) or (S,R/S)-4-(hydroxymethyl)-2-(2-hydroxypropan-2-yl)-N′-((3-methyl-1,2,3,5,6,7-hexa-hydrodicyclopenta[b,e]py-ridin-8-yl)carbamoyl)thia-zole-5-sulfonimidamide]", "IC50": "0.2 to 1"}, {"smiles": "CC1CCc2c1nc1c(c2NC(=O)N=S(N)(=O)c2sc(C(C)(C)O)nc2CO)CCC1", "note": "(single isomer, unassigned) [Compound 168ba, (R,S) or (R,R)-4-(hydroxymethyl)-2-(2-hydroxypropan-2-yl)-N′-((3-methyl-1,2,3,5,6,7-hexahydrodicyclo-penta[b,e]pyridin-8-yl)carbamoyl)thiazole-5-sulfonimidamide]", "IC50": "0.2 to 1"}]}]}
